Source: PMC7382296, “Discovery of potent thrombin inhibitors from a protease-focused DNA-encoded chemical library” (Proceedings of the National Academy of Sciences of the …, 2020)

Molecular target: T1, thrombin (Homo sapiens, UniProt P00734)
T1 construct: gene F2
Assay: thrombin inhibition dose-response, apparent Ki
Format: biochemical

Work on `CNC(=O)[C@@H]1CN(C(=O)[C@H](Cc2ccccc2CNC(=N)N)NC(=O)N(C)C2CCOc3ccccc32)C[C@H]1c1ccc(OC)cc1` (stereo partly shown) [compound 5] yielded a Ki of 1 nM.
